Results: ChEMBL document CHEMBL5579840, “Optimization of diastereomeric dihydropyridines as antimalarials” (Eur J Med Chem, 2024)

Legend:
Plasmodium falciparum [1] = test: Antimalarial activity against chloroquine-sensitive Plasmodium falciparum 3D7 infected in erythroctes incubated for 72 hrs by SYBR green 1 based spectrofluorometer; type: functional, organism-based, Erythrocyte; conditions: erythrocyte
Plasmodium falciparum [2] = test: Antimalarial activity against chloroquine-resistant Plasmodium falciparum K1 infected in erythroctes incubated for 72 hrs by SYBR green 1 based spectrofluorometer; type: functional, organism-based, Erythrocyte; conditions: erythrocyte

Compound	EC50 (Plasmodium falciparum [1])	EC50 (Plasmodium falciparum [2])
CCOC(=O)C1=C(c2ccccc2)NC2=C(C(=O)CC(c3ccc(OC)c(OC)c3)C2)C1c1ccccc1Cl (mixture of isomers)	0.176 µM	0.0923 µM
CCOC(=O)C1=C(C)NC2=C(C(=O)CC(c3ccc(Cl)c(OC)c3)C2)C1c1ccccc1Cl (mixture of isomers)	0.0477 µM	0.0512 µM
CCOC(=O)C1=C(C)NC2=C(C(=O)CC(c3ccc(OC)c(OC)c3)C2)C1c1ccc(Cl)cc1C (mixture of isomers)	0.0551 µM	0.0385 µM
CCCC1=C(C(=O)OCC)C(c2ccccc2Cl)C2=C(CC(c3ccc(OC)c(OC)c3)OC2=O)N1 (mixture of isomers)	0.029 µM	0.0155 µM
CCCOC(=O)C1=C(C)NC2=C(C(=O)OC(c3ccc(OC)c(OC)c3)C2)C1c1ccccc1Cl (mixture of isomers)	1.67 µM	1.63 µM
CCOC(=O)C1=C(C)NC2=C(C(=O)OC(c3ccc(OC)c(OC)c3)C2)C1c1ccc(Cl)cc1C (mixture of isomers)	0.0195 µM	0.0468 µM
CCOC(=O)C1=C(C)NC2=C(C(=O)CC(c3cc(OC)c(OC)c(OC)c3)C2)C1c1ccccc1Cl (mixture of isomers)	0.0036 µM	0.0049 µM
COc1ccc(C2CC3=C(C(=O)O2)C(c2ccccc2Cl)C(C(=O)OCc2ccccc2)=C(C)N3)cc1OC (mixture of isomers)	> 7.5 µM	> 7.5 µM
CCOC(=O)C1=C(C)NC2=C(C(=O)OC(c3ccc(OC)c(OC)c3)C2)C1c1ccc(Br)cc1 (mixture of isomers)	0.213 µM	0.634 µM
COC(=O)C1=C(C)NC2=C(C(=O)OC(c3ccc(OC)c(OC)c3)C2)C1c1ccccc1Cl (mixture of isomers)	> 9.4 µM	> 9.4 µM
CCOC(=O)C1=C(C(=O)OCC)C(c2ccccc2Cl)C2=C(CC(c3ccc(OC)c(OC)c3)OC2=O)N1 (mixture of isomers)	0.0587 µM	0.0222 µM
CCOC(=O)C1=C(C)NC2=C(C(=O)OC(c3ccc(OC)c(OC)c3)C2)C1c1ccccc1C (mixture of isomers)	0.0727 µM	0.123 µM
CCCC1=C(C(=O)OCC)C(c2ccccc2Cl)C2=C(CC(c3ccc(OC)c(OC)c3)CC2=O)N1 (mixture of isomers)	0.0023 µM	0.0038 µM
COCC1=C(C(=O)OC)C(c2ccc(Cl)cc2C)C2=C(CC(c3ccc(OC)c(OC)c3)OC2=O)N1 (mixture of isomers)	0.112 µM	0.0813 µM
CCCC1=C(C(=O)OCC)C(c2ccc(Cl)cc2C)C2=C(CC(c3ccc(Cl)c(OC)c3)CC2=O)N1 (mixture of isomers)	0.0279 µM	0.0489 µM
CCCC1=C(C(=O)OCC)C(c2ccc(Cl)cc2C)C2=C(CC(c3cc(OC)ccc3OC)CC2=O)N1 (mixture of isomers)	0.0551 µM	0.0444 µM
CCOC(=O)C1=C(C)NC2=C(C(=O)OC(c3ccccc3)C2)C1c1ccccc1Cl (mixture of isomers)	> 10 µM	–
CCCC1=C(C(=O)OCC)C(c2ccc(Cl)cc2C)C2=C(CC(c3ccc(OC)c(OC)c3)OC2=O)N1 (mixture of isomers)	0.03 µM	0.022 µM
CCOC(=O)C1=C(C)NC2=C(C(=O)OC(c3ccc(OC)c(OC)c3)C2)C1c1ccccc1Cl (mixture of isomers)	0.372 µM	0.323 µM
CCOC(=O)C1=C(C)NC2=C(C(=O)OC(c3ccc(Cl)c(OC)c3)C2)C1c1ccccc1Cl (mixture of isomers)	0.595 µM	0.345 µM

Compound	EC50 (Plasmodium falciparum [1])	EC50 (Plasmodium falciparum [2])
COc1ccc(C2CC3=C(C(=O)O2)C(c2ccccc2Cl)C(C(=O)OC(C)(C)C)=C(C)N3)cc1OC (mixture of isomers)	–	2.65 µM
CCOC(=O)C1=C(C)NC2=C(C(=O)OC(c3ccc(Cl)c(OC)c3)C2)C1c1ccc(Cl)cc1C (mixture of isomers)	0.08 µM	0.0732 µM
CCOC(=O)C1=C(C)NC2=C(C(=O)OC(c3ccc(OC)c(OC)c3)C2)C1c1ccc(C)cc1 (mixture of isomers)	1.25 µM	1.61 µM
CCOC(=O)C1=C(C)NC2=C(C(=O)OC(c3ccc(OC)c(OC)c3)C2)C1c1ccccc1OC (mixture of isomers)	> 5.5 µM	–
COCC1=C(C(=O)OC)C(c2ccc(Cl)cc2)C2=C(CC(c3cc(OC)c(OC)c(OC)c3)OC2=O)N1 (mixture of isomers)	0.0308 µM	0.0436 µM
CCOC(=O)C1=C(C)NC2=C(C(=O)OC(c3ccc(Cl)cc3)C2)C1c1ccccc1Cl (mixture of isomers)	> 5.5 µM	> 5.5 µM
COCC1=C(C(=O)OC)C(c2ccc(Cl)cc2C)C2=C(CC(c3ccc(OC)c(OC)c3)CC2=O)N1 (mixture of isomers)	0.0024 µM	0.0046 µM
CCOC(=O)C1=C(C)NC2=C(C(=O)CC(c3ccc(OC)c(OC)c3)C2)C1c1ccc(Cl)cc1 (mixture of isomers)	0.0163 µM	0.0189 µM
CCOC(=O)C1=C(C)NC2=C(C(=O)OC(c3ccc(OC)c(OC)c3)C2)C1c1ccccc1 (mixture of isomers)	0.18 µM	0.12 µM
CCOC(=O)C1=C(C)NC2=C(C(=O)CC(c3ccc(Cl)c(OC)c3)C2)C1c1ccc(Cl)cc1C (mixture of isomers)	0.0783 µM	0.0691 µM
CCOC(=O)C1=C(C)NC2=C(C(=O)OC(c3cccc(OC)c3)C2)C1c1ccccc1Cl (mixture of isomers)	2.42 µM	> 6 µM
CCOC(=O)C1=C(C)NC2=C(C(=O)OC(c3ccccc3Cl)C2)C1c1ccccc1Cl (mixture of isomers)	> 6 µM	> 6 µM
CCCC1=C(C(=O)OCC)C(c2ccc(Cl)cc2C)C2=C(CC(c3ccc(OC)c(OC)c3)CC2=O)N1 (mixture of isomers)	0.0135 µM	0.0241 µM
CCOC(=O)C1=C(C)NC2=C(C(=O)CC(c3ccc(OC)c(OC)c3)C2)C1c1ccccc1Cl (mixture of isomers)	0.0171 µM	0.028 µM
CCOC(=O)C1=C(C)NC2=C(C(=O)OC(c3ccc(OC)c(OC)c3)C2)C1c1ccccc1 (stereo in doubt; 1B)	0.083 µM	0.08 µM
CCOC(=O)C1=C(C)NC2=C(C(=O)CC(c3ccc(OC)c(OC)c3)C2)C1c1ccccc1Cl (stereo in doubt; 2B)	0.0135 µM	0.0157 µM
CCOC(=O)C1=C(C)NC2=C(C(=O)OC(c3ccc(OC)c(OC)c3)C2)C1c1ccc(Cl)cc1 (stereo in doubt; 5)	0.0918 µM	0.16 µM
CCOC(=O)C1=C(C)NC2=C(C(=O)OC(c3ccc(OC)c(OC)c3)C2)C1c1ccc(Cl)cc1 (stereo in doubt; 5B)	0.0476 µM	0.0538 µM
CCOC(=O)C1=C(C)NC2=C(C(=O)OC(c3ccc(OC)c(OC)c3)C2)C1c1ccccc1C (stereo in doubt; 6B)	0.0385 µM	0.0597 µM
CCOC(=O)C1=C(C)NC2=C(C(=O)OC(c3ccc(OC)c(OC)c3)C2)C1c1ccc(C)cc1 (stereo in doubt; 8B)	0.638 µM	0.605 µM

Compound	EC50 (Plasmodium falciparum [1])	EC50 (Plasmodium falciparum [2])
CCOC(=O)C1=C(C)NC2=C(C(=O)OC(c3ccc(OC)c(OC)c3)C2)C1c1ccccc1OC (stereo in doubt; 9B)	2.05 µM	> 5.5 µM
CCOC(=O)C1=C(C)NC2=C(C(=O)OC(c3ccc(OC)c(OC)c3)C2)C1c1ccc(Br)cc1 (stereo in doubt; 12B)	0.059 µM	0.341 µM
CCOC(=O)C1=C(C)NC2=C(C(=O)OC(c3ccc(OC)c(OC)c3)C2)C1c1ccc([N+](=O)[O-])cc1 (stereo in doubt; 13B)	2.71 µM	2.2 µM
CCOC(=O)C1=C(C)NC2=C(C(=O)OC(c3ccccc3)C2)C1c1ccccc1Cl (stereo in doubt; 17B)	> 11 µM	–
CCOC(=O)C1=C(C)NC2=C(C(=O)OC(c3ccc(Cl)cc3)C2)C1c1ccccc1Cl (stereo in doubt; 20B)	2.86 µM	2.16 µM
CCOC(=O)C1=C(C)NC2=C(C(=O)OC(c3cccc(C)c3)C2)C1c1ccccc1Cl (stereo in doubt; 22B)	> 6 µM	> 6 µM
CCOC(=O)C1=C(C)NC2=C(C(=O)OC(c3ccc(C)cc3)C2)C1c1ccccc1Cl (stereo in doubt; 23B)	> 6 µM	1.58 µM
CCOC(=O)C1=C(C)NC2=C(C(=O)OC(c3ccccc3OC)C2)C1c1ccccc1Cl (stereo in doubt; 24B)	> 5.5 µM	> 5.5 µM
CCOC(=O)C1=C(C)NC2=C(C(=O)OC(c3cccc(OC)c3)C2)C1c1ccccc1Cl (stereo in doubt; 25B)	0.626 µM	0.363 µM
CCOC(=O)C1=C(C)NC2=C(C(=O)OC(c3ccc(OC)cc3)C2)C1c1ccccc1Cl (stereo in doubt; 26B)	2.16 µM	1.96 µM
COc1ccc(C2CC(=O)C3=C(C2)NC(C)=C(C(=O)O)C3c2ccccc2Cl)cc1OC (stereo in doubt; 27B)	> 12 µM	–
COC(=O)C1=C(C)NC2=C(C(=O)OC(c3ccc(OC)c(OC)c3)C2)C1c1ccccc1Cl (stereo in doubt; 28B)	0.798 µM	0.417 µM
CCCOC(=O)C1=C(C)NC2=C(C(=O)OC(c3ccc(OC)c(OC)c3)C2)C1c1ccccc1Cl (stereo in doubt; 29B)	0.458 µM	0.332 µM
COc1ccc(C2CC3=C(C(=O)O2)C(c2ccccc2Cl)C(C(=O)OC(C)(C)C)=C(C)N3)cc1OC (stereo in doubt; 30B)	–	0.272 µM
COc1ccc(C2CC3=C(C(=O)O2)C(c2ccccc2Cl)C(C(=O)OCc2ccccc2)=C(C)N3)cc1OC (stereo in doubt; 31B)	> 9.1 µM	> 9.1 µM
CCOC(=O)C1=C(C(=O)OCC)C(c2ccccc2Cl)C2=C(CC(c3ccc(OC)c(OC)c3)OC2=O)N1 (stereo in doubt; 33B)	0.119 µM	0.0776 µM
CCOC(=O)C1=C(c2ccccc2)NC2=C(C(=O)CC(c3ccc(OC)c(OC)c3)C2)C1c1ccccc1Cl (stereo in doubt; 35B)	0.0405 µM	0.0467 µM
CCOC(=O)C1=C(C)NC2=C(C(=O)CC(c3ccc(OC)c(OC)c3)C2)C1c1ccc(Cl)cc1 (stereo in doubt; 36B)	0.0103 µM	0.0093 µM
CCCC1=C(C(=O)OCC)C(c2ccc(Cl)cc2C)C2=C(CC(c3cc(OC)ccc3OC)CC2=O)N1 (stereo in doubt; 48B)	0.0375 µM	0.0468 µM
